Measured values reported in US20110195982A1, “PREDICTIVE MARKER FOR EGFR INHIBITOR TREATMENT” (priority 2007, published 2011).

Experiments:
[1] = test system: NSCLC; settings: second line therapy of NSCLC; cited from earlier work
[2] = test system: NSCLC; settings: second line after cisplatin-based first-line regimens, ECOG 0, 1 or 2, versus best supportive care; cited from earlier work
[3] = test system: advanced NSCLC; assay: open-label, predictive marker identification Phase II study of Tarceva monotherapy; assay type: in vivo, human
Experimental: The selection of this dose was based on pharmacokinetic parameters, as well as the safety and tolerability profile of this dose observed in Phase I, II and III trials in heavily pre-treated patients with advanced cancer. Drug levels seen in the plasma of patients with cancer receiving the 150 mg/day dose were consistently above the average plasma concentration of 500 ng/ml targeted for clinical efficacy.
This was an open-label, predictive marker identification Phase II study. The study was conducted in approximately 26 sites in about 12 countries. 264 patients with advanced NSCLC following failure of at least one prior chemotherapy regimen were enrolled over a 12 month period. […] Dose reductions were permitted based on tolerability to drug therapy. Clinical and laboratory parameters were assessed to evaluate disease control and toxicity. Treatment continued until disease progression, unacceptable toxicity or death. The study design is depicted in FIG. 1.
The RECIST (Uni-dimensional Tumour Measurement) criteria were used to evaluate response. These criteria can be found under the following link: http://www.eortc.be/recist/
Note that: To be assigned a status of CR or PR, changes in tumour measurements must be confirmed by repeated assessments at least 4 weeks apart at any time during the treatment period.
In the case of SD, follow-up measurements must have met the SD criteria at least once after study entry at a minimum interval of 6 weeks.
In the case of maintained SD, follow-up measurements must have met the SD criteria at least once after study entry with maintenance duration of at least 12 weeks.
A regular status check every 3 months was performed either by a patient's visit to the clinic or by telephone. All deaths were recorded. At the end of the study a definitive confirmation of survival was required for each patient.

[4] = patients with cancer, 150 mg/day; cited from earlier work
[5] = test system: NSCLC; settings: single agent, after failure of standard therapy for advanced disease, versus placebo; cited from earlier work
[6] = doses that provide the targeted effective concentration; cited from earlier work
[7] = 75 patients with qRT-PCR results
[8] = 102 patients with microarray data
[9] = all 264 enrolled patients, 150 mg/day oral
[10] = of the 102 patients with microarray data

Nc1nc2[nH]cc(CCc3ccc(C(=O)N[C@@H](CCC(=O)O)C(=O)O)cc3)c2c(=O)[nH]1 [pemetrexed]
efficacy compared with docetaxel [1]: clinically equivalent efficacy
side effects compared with docetaxel [1]: significantly fewer side effects

CC(=O)O[C@@]12CO[C@@H]1C[C@H](O)[C@@]1(C)C(=O)[C@H](O)C3=C(C)[C@@H](OC(=O)[C@H](O)[C@@H](NC(=O)OC(C)(C)C)c4ccccc4)C[C@@](O)([C@@H](OC(=O)c4ccccc4)[C@H]21)C3(C)C [docetaxel]
survival [2]: improved survival

C#Cc1cccc(Nc2ncnc3cc(OCCOC)c(OCCOC)cc23)c1 [Tarceva, erlotinib]
PD [3, 7]: 52%
partial response (PR) [3, 7]: 5%
Best Response SD, n (%) [3, 8]: 31 (30.4%)
Clinical Benefit YES, n (%) [3, 8]: 21 (20.6%)
clinical benefit (objective response or stable disease for 12 weeks or more) [3, 9]: 31.4%
median overall survival [3, 9]: 7.6 (CI 7-9) months
median progression-free survival [3, 9]: 11.3 (CI 8-12) weeks
patients achieving an objective response ([3]; all 264 enrolled patients, 150 mg/day oral, RECIST): 13.6%
number of partial responders (PR) [3, 10]: 6
number of patients with PD [3, 10]: 49
number of patients with SD [3, 10]: 31
patients achieving a CR [3, 10]: no patients achieving a CR
drug levels in plasma [4]: > 500 ng/mL
survival of NSCLC patients [5]: significantly prolongs and improves the survival
safety and tolerability [6]: safe and generally well tolerated
